Experimental data published in US11969428B2, “Methods and pharmaceutical compositions for treating lymphoid malignancy” (priority 2011, dated 2024).

What was measured:
Assay in all cases: Ambit KinomeScan screening
Assay type in all cases: binding
Details in all cases: CAL-130 10 μM
ABL1(F317I) = target: T1, ABL1(F317I) (Homo sapiens, UniProt P00519, F317I)
T1 construct: unspecified tag ("tagged kinases"); purchased Ambit (KinomeScan screening)
Method in brief: (§1)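 Competition binding, 10 μM CAL-130 vs immobilized bait ligand; tagged kinases; readout % of control binding (lower = tighter); >35% = non-hit.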

ACVR2B = target: T2, ACVR2B (Homo sapiens, UniProt Q13705)
T2 construct: purchased Ambit (KinomeScan screening)
Method in brief: as §1

BIKE = target: T3, BIKE (Homo sapiens, UniProt Q9NSY1)
T3 construct: purchased Ambit (KinomeScan screening service)
Method in brief: as §1

BMPR2 = target: T4, BMPR2 (Homo sapiens, UniProt Q13873)
T4 construct: unspecified tag ("tagged kinases"); purchased Ambit (KinomeScan screening)
Method in brief: as §1

BRAF = target: T5, BRAF (Homo sapiens, UniProt P15056)
T5 construct: unspecified tag ("tagged kinases"); purchased Ambit (KinomeScan screening)
Method in brief: as §1

BRSK2 = target: T6, BRSK2 (Homo sapiens, UniProt Q8IWQ3)
T6 construct: unspecified tag ("tagged kinases"); purchased Ambit (KinomeScan screening)
Method in brief: as §1

CDK5 = target: T7, CDK5 (Homo sapiens, UniProt Q00535)
T7 construct: purchased Ambit (KinomeScan screening)
Method in brief: as §1

CDK8 = target: T8, CDK8 (Homo sapiens, UniProt P49336)
T8 construct: purchased Ambit (KinomeScan screening service)
Method in brief: as §1

CDKL3 = target: T9, CDKL3 (Homo sapiens, UniProt Q8IVW4)
T9 construct: purchased Ambit (KinomeScan screening service)
Method in brief: as §1

CIT = target: T10, CIT (Homo sapiens, UniProt O14578)
T10 construct: purchased Ambit (KinomeScan screening service)
Method in brief: as §1

CSNK1E = target: T11, CSNK1E (Homo sapiens, UniProt P49674)
T11 construct: purchased Ambit (KinomeScan screening service)
Method in brief: as §1

EGFR(L858R, T790M) = target: T12, EGFR(L858R, T790M) (Homo sapiens, UniProt P00533, L858R/T790M)
T12 construct: unspecified tag; purchased Ambit (KinomeScan screening service)
Method in brief: as §1

EPHA6 = target: T13, EPHA6 (Homo sapiens, UniProt Q9UF33)
T13 construct: purchased Ambit (KinomeScan screening service)
Method in brief: as §1

EPHB6 = target: T14, EPHB6 (Homo sapiens, UniProt O15197)
T14 construct: purchased Ambit (KinomeScan screening service)
Method in brief: as §1

FYN = target: T15, FYN (Homo sapiens, UniProt P06241)
T15 construct: unspecified tag ('tagged kinases'); purchased Ambit (KinomeScan screening service)
Method in brief: as §1

GRK1 = target: T16, GRK1 (Homo sapiens, UniProt Q15835)
T16 construct: unspecified tag ('tagged kinases'); purchased Ambit (KinomeScan screening service)
Method in brief: as §1

JNK1 = target: T17, JNK1 (Homo sapiens, UniProt P45983)
T17 construct: purchased Ambit (KinomeScan screening)
Method in brief: as §1

LATS1 = target: T18, LATS1 (Homo sapiens, UniProt O95835)
T18 construct: unspecified tag ('tagged kinases'); purchased Ambit (KinomeScan screening service)
Method in brief: as §1

LOK = target: T19, LOK (Homo sapiens, UniProt O94804)
T19 construct: unspecified tag ('tagged kinases'); purchased Ambit (KinomeScan screening service)
Method in brief: as §1

LZK = target: T20, LZK (Homo sapiens, UniProt O43283)
T20 construct: unspecified tag ('tagged kinases'); purchased Ambit (KinomeScan screening service)
Method in brief: as §1

MYO3B = target: T21, MYO3B (Homo sapiens, UniProt Q8WXR4)
T21 construct: unspecified tag; purchased Ambit (KinomeScan screening panel)
Method in brief: as §1

NEK1 = target: T22, NEK1 (Homo sapiens, UniProt Q96PY6)
T22 construct: unspecified tag; purchased Ambit (KinomeScan screening panel)
Method in brief: as §1

NEK2 = target: T23, NEK2 (Homo sapiens, UniProt P51955)
T23 construct: unspecified tag; purchased Ambit (KinomeScan screening panel)
Method in brief: as §1

NEK9 = target: T24, NEK9 (Homo sapiens, UniProt Q8TD19)
T24 construct: purchased Ambit (KinomeScan screening service)
Method in brief: as §1

PCTK2 = target: T25, PCTK2 (Homo sapiens, UniProt Q00537)
T25 construct: unspecified tag ('tagged kinases'); purchased Ambit (KinomeScan screening)
Method in brief: as §1

PDPK1 = target: T26, PDPK1 (Homo sapiens, UniProt O15530)
T26 construct: unspecified tag ('tagged kinases'); purchased Ambit (KinomeScan screening)
Method in brief: as §1

PIM2 = target: T27, PIM2 (Homo sapiens, UniProt Q9P1W9)
T27 construct: unspecified tag; purchased Ambit (KinomeScan screening panel)
Method in brief: as §1

PKAC-α = target: T28, PKAC-α (Homo sapiens, UniProt P17612)
T28 construct: unspecified tag; purchased Ambit (KinomeScan screening panel)
Method in brief: as §1

PKN2 = target: T29, PKN2 (Homo sapiens, UniProt Q16513)
T29 construct: purchased Ambit (KinomeScan screening service)
Method in brief: as §1

PRKCH = target: T30, PRKCH (Homo sapiens, UniProt P24723)
T30 construct: purchased Ambit (KinomeScan screening service)
Method in brief: as §1

PRKR = target: T31, PRKR (Homo sapiens, UniProt P19525)
T31 construct: tag (kind not specified); purchased Ambit (KinomeScan screening service)
Method in brief: as §1

RIPK4 = target: T32, RIPK4 (Homo sapiens, UniProt P57078)
T32 construct: unspecified tag (tagged kinase); purchased Ambit (KinomeScan screening)
Method in brief: as §1

SRPK1 = target: T33, SRPK1 (Homo sapiens, UniProt Q96SB4)
T33 construct: tag, kind not specified; purchased Ambit (KinomeScan screening service)
Method in brief: as §1

TAOK1 = target: T34, TAOK1 (Homo sapiens, UniProt Q7L7X3)
T34 construct: tag (kind not specified); purchased Ambit (KinomeScan screening service)
Method in brief: as §1

TBK1 = target: T35, TBK1 (Homo sapiens, UniProt Q9UHD2)
T35 construct: tag (kind not specified); purchased Ambit (KinomeScan screening service)
Method in brief: as §1

TTK = target: T36, TTK (Homo sapiens, UniProt P33981)
T36 construct: tag, kind not specified; purchased Ambit (KinomeScan screening service)
Method in brief: as §1

YES = target: T37, YES (Homo sapiens, UniProt P07947)
T37 construct: purchased Ambit (KinomeScan screening service)
Method in brief: as §1

T31 sequence (P19525 whole entry): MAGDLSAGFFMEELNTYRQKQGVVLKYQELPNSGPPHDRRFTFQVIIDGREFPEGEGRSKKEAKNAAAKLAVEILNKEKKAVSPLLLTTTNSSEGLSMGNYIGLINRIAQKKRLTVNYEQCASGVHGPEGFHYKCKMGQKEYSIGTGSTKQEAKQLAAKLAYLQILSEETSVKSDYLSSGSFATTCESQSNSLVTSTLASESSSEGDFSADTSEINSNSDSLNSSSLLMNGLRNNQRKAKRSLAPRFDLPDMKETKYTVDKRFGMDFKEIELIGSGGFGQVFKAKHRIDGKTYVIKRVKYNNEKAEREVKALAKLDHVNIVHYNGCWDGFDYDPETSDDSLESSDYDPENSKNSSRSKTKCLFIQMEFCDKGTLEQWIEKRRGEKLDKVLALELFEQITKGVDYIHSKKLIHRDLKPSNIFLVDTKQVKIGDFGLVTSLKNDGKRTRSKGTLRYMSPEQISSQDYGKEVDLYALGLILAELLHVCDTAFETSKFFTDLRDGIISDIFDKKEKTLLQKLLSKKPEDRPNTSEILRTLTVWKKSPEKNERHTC
T36 sequence (P33981 whole entry): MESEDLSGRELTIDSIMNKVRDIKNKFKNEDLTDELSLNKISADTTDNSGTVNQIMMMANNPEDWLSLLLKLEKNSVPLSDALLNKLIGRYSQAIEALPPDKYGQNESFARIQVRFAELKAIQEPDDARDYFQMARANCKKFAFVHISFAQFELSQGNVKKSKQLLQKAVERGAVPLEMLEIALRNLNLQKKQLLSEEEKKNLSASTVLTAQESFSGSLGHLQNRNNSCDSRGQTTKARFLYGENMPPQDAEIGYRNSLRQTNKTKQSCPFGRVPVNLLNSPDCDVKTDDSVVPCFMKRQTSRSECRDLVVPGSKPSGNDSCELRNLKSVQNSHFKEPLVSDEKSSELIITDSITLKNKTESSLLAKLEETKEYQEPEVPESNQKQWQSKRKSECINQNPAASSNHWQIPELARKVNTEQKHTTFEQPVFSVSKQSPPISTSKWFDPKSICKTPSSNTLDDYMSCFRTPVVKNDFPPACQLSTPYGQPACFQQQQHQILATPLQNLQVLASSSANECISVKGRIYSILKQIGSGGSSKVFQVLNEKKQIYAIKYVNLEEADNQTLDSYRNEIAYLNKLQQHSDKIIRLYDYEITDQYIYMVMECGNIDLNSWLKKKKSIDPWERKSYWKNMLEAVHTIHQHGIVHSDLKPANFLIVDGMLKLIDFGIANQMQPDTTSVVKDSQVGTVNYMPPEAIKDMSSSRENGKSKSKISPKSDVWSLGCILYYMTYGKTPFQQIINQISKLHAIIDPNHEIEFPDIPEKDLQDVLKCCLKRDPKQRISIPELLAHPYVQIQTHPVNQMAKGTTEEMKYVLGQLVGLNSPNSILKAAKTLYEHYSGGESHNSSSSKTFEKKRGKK
T2 sequence (Q13705 19-512): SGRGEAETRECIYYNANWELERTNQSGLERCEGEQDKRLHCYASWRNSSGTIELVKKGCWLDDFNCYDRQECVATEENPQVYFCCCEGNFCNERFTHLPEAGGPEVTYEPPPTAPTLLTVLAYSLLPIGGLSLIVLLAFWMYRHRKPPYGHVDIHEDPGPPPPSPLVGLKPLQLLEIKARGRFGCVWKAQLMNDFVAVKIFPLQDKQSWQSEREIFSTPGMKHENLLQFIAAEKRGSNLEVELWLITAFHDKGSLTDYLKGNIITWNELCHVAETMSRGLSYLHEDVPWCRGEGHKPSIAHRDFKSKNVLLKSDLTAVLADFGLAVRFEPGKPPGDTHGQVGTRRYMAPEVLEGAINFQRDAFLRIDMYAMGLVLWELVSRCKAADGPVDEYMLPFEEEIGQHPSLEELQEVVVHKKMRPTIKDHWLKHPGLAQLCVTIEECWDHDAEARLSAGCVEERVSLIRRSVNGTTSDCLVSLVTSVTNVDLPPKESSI
T21 sequence (Q8WXR4 whole entry): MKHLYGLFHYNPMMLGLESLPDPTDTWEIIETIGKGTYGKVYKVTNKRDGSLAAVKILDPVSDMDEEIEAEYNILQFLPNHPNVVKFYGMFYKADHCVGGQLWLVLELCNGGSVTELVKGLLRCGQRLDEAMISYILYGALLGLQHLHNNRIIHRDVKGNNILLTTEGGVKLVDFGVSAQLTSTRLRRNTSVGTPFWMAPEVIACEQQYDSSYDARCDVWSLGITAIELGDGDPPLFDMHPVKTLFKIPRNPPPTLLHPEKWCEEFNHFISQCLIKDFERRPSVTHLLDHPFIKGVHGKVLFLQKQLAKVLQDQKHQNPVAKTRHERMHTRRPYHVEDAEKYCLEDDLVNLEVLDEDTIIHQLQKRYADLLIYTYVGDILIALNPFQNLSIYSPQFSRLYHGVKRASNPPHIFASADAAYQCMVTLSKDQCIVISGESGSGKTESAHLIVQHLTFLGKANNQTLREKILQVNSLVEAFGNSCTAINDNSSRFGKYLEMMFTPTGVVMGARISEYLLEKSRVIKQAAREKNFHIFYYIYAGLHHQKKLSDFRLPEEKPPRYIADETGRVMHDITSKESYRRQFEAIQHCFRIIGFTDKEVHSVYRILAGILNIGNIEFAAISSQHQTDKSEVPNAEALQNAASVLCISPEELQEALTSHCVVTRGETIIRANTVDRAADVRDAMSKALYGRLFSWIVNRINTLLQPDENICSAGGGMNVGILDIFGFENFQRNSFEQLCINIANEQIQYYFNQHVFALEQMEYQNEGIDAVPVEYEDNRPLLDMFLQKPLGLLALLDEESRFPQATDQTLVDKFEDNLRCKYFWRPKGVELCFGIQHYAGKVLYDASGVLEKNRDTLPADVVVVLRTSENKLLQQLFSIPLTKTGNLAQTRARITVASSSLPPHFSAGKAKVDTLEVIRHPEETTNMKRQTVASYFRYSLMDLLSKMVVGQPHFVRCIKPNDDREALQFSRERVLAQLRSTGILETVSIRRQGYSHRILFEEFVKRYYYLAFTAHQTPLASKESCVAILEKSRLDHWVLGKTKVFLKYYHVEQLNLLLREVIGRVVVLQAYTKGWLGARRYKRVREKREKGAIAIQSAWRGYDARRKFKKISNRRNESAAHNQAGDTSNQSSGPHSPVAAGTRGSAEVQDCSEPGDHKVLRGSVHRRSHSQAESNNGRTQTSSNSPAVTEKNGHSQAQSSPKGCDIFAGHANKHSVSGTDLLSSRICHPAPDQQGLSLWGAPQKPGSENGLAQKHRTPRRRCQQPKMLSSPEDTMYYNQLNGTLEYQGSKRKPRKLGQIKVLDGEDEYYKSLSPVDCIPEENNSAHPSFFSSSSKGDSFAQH
T13 sequence (Q9UF33 23-1036): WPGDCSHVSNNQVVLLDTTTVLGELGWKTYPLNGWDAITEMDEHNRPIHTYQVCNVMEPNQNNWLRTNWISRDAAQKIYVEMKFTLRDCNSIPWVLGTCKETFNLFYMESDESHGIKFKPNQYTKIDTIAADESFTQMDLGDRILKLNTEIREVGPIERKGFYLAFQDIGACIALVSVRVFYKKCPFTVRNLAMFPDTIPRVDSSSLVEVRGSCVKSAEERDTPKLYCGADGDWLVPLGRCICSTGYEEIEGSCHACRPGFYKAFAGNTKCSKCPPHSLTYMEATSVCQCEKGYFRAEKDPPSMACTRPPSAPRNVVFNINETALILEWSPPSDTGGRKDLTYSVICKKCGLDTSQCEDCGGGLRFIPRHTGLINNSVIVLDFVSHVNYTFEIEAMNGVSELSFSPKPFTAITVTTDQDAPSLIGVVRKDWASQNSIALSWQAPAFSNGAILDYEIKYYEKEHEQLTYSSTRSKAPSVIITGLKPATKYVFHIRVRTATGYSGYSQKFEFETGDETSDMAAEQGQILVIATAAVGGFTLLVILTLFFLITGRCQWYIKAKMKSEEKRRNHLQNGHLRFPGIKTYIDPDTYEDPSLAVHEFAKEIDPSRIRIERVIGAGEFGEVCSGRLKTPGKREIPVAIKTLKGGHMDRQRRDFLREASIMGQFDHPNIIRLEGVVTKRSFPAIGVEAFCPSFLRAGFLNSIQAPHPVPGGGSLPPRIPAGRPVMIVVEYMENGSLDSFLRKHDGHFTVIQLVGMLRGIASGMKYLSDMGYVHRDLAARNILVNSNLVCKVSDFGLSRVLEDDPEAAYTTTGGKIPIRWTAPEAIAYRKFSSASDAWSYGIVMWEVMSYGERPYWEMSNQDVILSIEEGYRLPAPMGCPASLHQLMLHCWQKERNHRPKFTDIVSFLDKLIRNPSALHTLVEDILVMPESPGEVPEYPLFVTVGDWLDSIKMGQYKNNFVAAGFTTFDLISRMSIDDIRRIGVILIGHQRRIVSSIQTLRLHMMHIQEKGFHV
T11 sequence (P49674 whole entry): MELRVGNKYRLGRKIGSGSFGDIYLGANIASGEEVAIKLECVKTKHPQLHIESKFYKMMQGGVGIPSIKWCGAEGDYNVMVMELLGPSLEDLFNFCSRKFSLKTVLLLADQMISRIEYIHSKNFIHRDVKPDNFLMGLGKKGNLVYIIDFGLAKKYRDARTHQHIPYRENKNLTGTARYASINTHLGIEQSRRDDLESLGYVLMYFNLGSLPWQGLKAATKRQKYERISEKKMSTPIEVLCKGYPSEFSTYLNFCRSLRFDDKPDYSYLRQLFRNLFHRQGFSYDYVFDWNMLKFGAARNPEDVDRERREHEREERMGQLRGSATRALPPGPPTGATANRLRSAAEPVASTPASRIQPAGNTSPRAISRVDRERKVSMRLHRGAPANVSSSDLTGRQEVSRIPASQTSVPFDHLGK
T7 sequence (Q00535 whole entry): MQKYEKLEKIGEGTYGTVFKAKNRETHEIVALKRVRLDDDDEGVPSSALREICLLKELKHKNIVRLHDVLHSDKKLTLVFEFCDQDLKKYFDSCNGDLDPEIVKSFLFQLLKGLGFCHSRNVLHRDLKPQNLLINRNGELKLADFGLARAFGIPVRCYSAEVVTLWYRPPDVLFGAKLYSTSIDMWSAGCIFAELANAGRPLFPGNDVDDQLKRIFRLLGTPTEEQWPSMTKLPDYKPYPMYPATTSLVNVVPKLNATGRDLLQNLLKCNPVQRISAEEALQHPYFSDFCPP

`Cc1ccccc1-n1c(C(C)Nc2nc(N)nc3nc[nH]c23)nc2cccc(C)c2c1=O` (stereo not shown) [CAL-130] was tested, and the “Percent of Control Binding” value (ABL1(F317I)) was 100%, the “Percent of Control Binding” value (ACVR2B) was 100% and the “Percent of Control Binding” value (BIKE) was 100%. The “Percent of Control Binding” value (BMPR2) was 100%, the “Percent of Control Binding” value (BRAF) was 100% and the “Percent of Control Binding” value (BRSK2) was 100%. The “Percent of Control Binding” value (CDK5) was 100%, the “Percent of Control Binding” value (CDK8) was 100% and the “Percent of Control Binding” value (CDKL3) was 100%. The “Percent of Control Binding” value (CIT) was 100%, the “Percent of Control Binding” value (CSNK1E) was 100% and the “Percent of Control Binding” value (EGFR(L858R, T790M)) was 100%. For the same molecule, the “Percent of Control Binding” value (EPHA6) was 100%, the “Percent of Control Binding” value (EPHB6) was 100% and the “Percent of Control Binding” value (FYN) was 100%. For the same molecule, the “Percent of Control Binding” value (GRK1) was 100%, the “Percent of Control Binding” value (JNK1) was 100% and the “Percent of Control Binding” value (LATS1) was 100%. For the same molecule, the “Percent of Control Binding” value (LOK) was 100%, the “Percent of Control Binding” value (LZK) was 100% and the “Percent of Control Binding” value (MYO3B) was 100%. For the same molecule, the “Percent of Control Binding” value (NEK1) was 100%, the “Percent of Control Binding” value (NEK2) was 100% and the “Percent of Control Binding” value (NEK9) was 100%. For the same molecule, the “Percent of Control Binding” value (PCTK2) was 100%, the “Percent of Control Binding” value (PDPK1) was 100% and the “Percent of Control Binding” value (PIM2) was 100%. The “Percent of Control Binding” value (PKAC-α) was 100%, the “Percent of Control Binding” value (PKN2) was 100% and the “Percent of Control Binding” value (PRKCH) was 100%. For the same molecule, the “Percent of Control Binding” value (PRKR) was 100%, the “Percent of Control Binding” value (RIPK4) was 100% and the “Percent of Control Binding” value (SRPK1) was 100%. The “Percent of Control Binding” value (TAOK1) was 100%, the “Percent of Control Binding” value (TBK1) was 100% and the “Percent of Control Binding” value (TTK) was 11%. The “Percent of Control Binding” value (YES) was 100%.
